Values belong to the compound of their own block, whether it stands above or below them.
How the values were obtained:
rats = assay: Penile erection test using rats; format: in vivo, rat; conditions: oral single dose 10 mg/kg in 0.5% methyl cellulose, observed for 2 hours
[1] = biological target: T1, Phosphodiesterase-5 enzyme (PDE 5) (Homo sapiens, UniProt O76074); assay: Test for phosphodiesterase-5 (PDE 5) activity; format: biochemical; conditions: PDE 5 fraction from human corpus cavernosal tissues
T1 construct: separated by HPLC (Mono Q anion exchange column) with concentration gradient of 0-500 mM NaCl to elute PDE isozymes; from tissue; host or cells: human corpus cavernosal tissue

[2] = Acute oral toxicity test in rats; conditions: SD, rat, in vivo, 1 g/kg; rats, oral single dose; read-out: lethal dose (LD50) of oral administration

SMILES: CCCc1nn(C)c2c(=O)[nH]c(-c3cc(S(=O)(=O)NC(C)C)ccc3OCC)nc12 [Example 1, 5-[2-ethoxy-5-(isopropylamidosulfonyl)phenyl]-1-methyl-3-propyl-1,6-dihydro-7H-pyrazolo(4,3-d)pyrimidin-7-one]
PEI (penile erection index) (rats): 366.7 ± 38.5
genital grooming (number of genital groomings) (rats): 3.0 ± 1.0
IC50 [1]: 8.63 nM
LD50 [2]: > 1000 mg/kg

SMILES: CCOc1ccc(S(=O)(=O)NC(C)C)cc1-c1nc2c(CC(C)C)nn(C)c2c(=O)[nH]1 [Example 4]
PEI (penile erection index) (rats): 133.3 ± 57.7
genital grooming (number of genital groomings) (rats): 2.3 ± 1.2

SMILES: CCCc1nn(CC)c2c(=O)[nH]c(-c3cc(S(=O)(=O)NC(C)C)ccc3OCC)nc12 [Example 5, 5-[2-ethoxy-5-(isopropylamidosulfonyl)phenyl]-1-ethyl-3-propyl-1,6-dihydro-7H-pyrazolo(4,3-d)pyrimidin-7-one]
PEI (penile erection index) (rats): 266.7 ± 57.7
genital grooming (number of genital groomings) (rats): 3.3 ± 1.2
IC50 [1]: 19.6 nM
LD50 [2]: > 1000 mg/kg

SMILES: CCCNS(=O)(=O)c1ccc(OCC)c(-c2nc3c(CCC)nn(C)c3c(=O)[nH]2)c1 [Example 7, 5-[2-ethoxy-5-(propylamidosulfonyl)phenyl]-1-methyl-3-propyl-1,6-dihydro-7H-pyrazolo(4,3-d)pyrimidin-7-one]
PEI (penile erection index) (rats): 200.0 ± 0.0
genital grooming (number of genital groomings) (rats): 6.7 ± 3.8
IC50 [1]: 20.7 nM
LD50 [2]: > 1000 mg/kg

SMILES: CCCNS(=O)(=O)c1ccc(OCC)c(-c2nc3c(CCC)nn(CC)c3c(=O)[nH]2)c1 [Example 8, 5-[2-ethoxy-5-(propylamidosulfonyl)phenyl]-1-ethyl-3-propyl-1,6-dihydro-7H-pyrazolo(4,3-d)pyrimidin-7-one]
PEI (penile erection index) (rats): 200.0 ± 100.0
genital grooming (number of genital groomings) (rats): 3.0 ± 1.0
IC50 [1]: 25.3 nM
LD50 [2]: > 1000 mg/kg

SMILES: CCCc1nn(C)c2c(=O)[nH]c(-c3cc(S(=O)(=O)NC(C)CC)ccc3OCC)nc12 (centres unmarked) [Example 10, 5-[2-ethoxy-5-(2-butylamidosulfonyl)phenyl]-1-methyl-3-propyl-1,6-dihydro-7H-pyrazolo(4,3-d)pyrimidin-7-one]
PEI (penile erection index) (rats): 466.7 ± 305.5
genital grooming (number of genital groomings) (rats): 4.0 ± 1.7
IC50 [1]: 3.78 nM
LD50 [2]: > 1000 mg/kg

SMILES: CCCc1nn(C)c2c(=O)[nH]c(-c3cc(S(=O)(=O)NC(CC)CC)ccc3OCC)nc12 [Example 11]
PEI (penile erection index) (rats): 100 ± 0.0
genital grooming (number of genital groomings) (rats): 2.7 ± 2.1

SMILES: CCCc1nn(C)c2c(=O)[nH]c(-c3cc(S(=O)(=O)NC(C)(C)C)ccc3OCC)nc12 [Example 12]
PEI (penile erection index) (rats): 22.2 ± 38.5
genital grooming (number of genital groomings) (rats): 0.3 ± 0.6

SMILES: CCCc1nn(C)c2c(=O)[nH]c(-c3cc(S(=O)(=O)NC4CC4)ccc3OCC)nc12 [Example 13, 5-[2-ethoxy-5-(cyclopropylamidosulfonyl)phenyl]-1-methyl-3-propyl-1,6-dihydro-7H-pyrazolo(4,3-d)pyrimidin-7-one]
PEI (penile erection index) (rats): 300.0 ± 100.0
genital grooming (number of genital groomings) (rats): 4.3 ± 1.2
IC50 [1]: 21.7 nM
LD50 [2]: > 1000 mg/kg

SMILES: CCCc1nn(CC)c2c(=O)[nH]c(-c3cc(S(=O)(=O)NC4CC4)ccc3OCC)nc12 [Example 14, 5-[2-ethoxy-5-(cyclopropylamidosulfonyl)phenyl]-1-ethyl-3-propyl-1,6-dihydro-7H-pyrazolo(4,3-d)pyrimidin-7-one]
PEI (penile erection index) (rats): 233.3 ± 57.7
genital grooming (number of genital groomings) (rats): 3.0 ± 1.0
IC50 [1]: 79.5 nM
LD50 [2]: > 1000 mg/kg

SMILES: CCOc1ccc(S(=O)(=O)NC2CC2)cc1-c1nc2c(CC(C)C)nn(C)c2c(=O)[nH]1 [Example 15]
PEI (penile erection index) (rats): 111.1 ± 101.8
genital grooming (number of genital groomings) (rats): 0.7 ± 0.6

SMILES: CCCOc1ccc(S(=O)(=O)NC2CC2)cc1-c1nc2c(CCC)nn(C)c2c(=O)[nH]1 [Example 16]
PEI (penile erection index) (rats): 100 ± 0
genital grooming (number of genital groomings) (rats): 1.7 ± 0.6

SMILES: CCCc1nn(C)c2c(=O)[nH]c(-c3cc(S(=O)(=O)NC4CCC4)ccc3OCC)nc12 [Example 17]
PEI (penile erection index) (rats): 66.7 ± 66.7
genital grooming (number of genital groomings) (rats): 1.0 ± 1.0

SMILES: CCCc1nn(C)c2c(=O)[nH]c(-c3cc(S(=O)(=O)NC4CCCC4)ccc3OCC)nc12 [Example 18]
PEI (penile erection index) (rats): 44.4 ± 38.5
genital grooming (number of genital groomings) (rats): 1.3 ± 0.6

SMILES: CCCc1nn(C)c2c(=O)[nH]c(-c3cc(S(=O)(=O)NC4CCCCC4)ccc3OCC)nc12 [Example 19, 5-[2-ethoxy-5-(cyclohexylamidosulfonyl)phenyl]-1-methyl-3-propyl-1,6-dihydro-7H-pyrazolo(4,3-d)pyrimidin-7-one]
PEI (penile erection index) (rats): 233.3 ± 57.7
genital grooming (number of genital groomings) (rats): 5.0 ± 0.0
IC50 [1]: 4.98 nM
LD50 [2]: > 1000 mg/kg

SMILES: CCOc1ccc(S(=O)(=O)NC2CCCCC2)cc1-c1nc2c(CC(C)C)nn(C)c2c(=O)[nH]1 [Example 20]
PEI (penile erection index) (rats): 266.7 ± 57.7
genital grooming (number of genital groomings) (rats): 2.3 ± 0.6

SMILES: CCCc1nn(C)c2c(=O)[nH]c(-c3cc(S(=O)(=O)NCC4CCCO4)ccc3OCC)nc12 (centres unmarked) [Example 21]
PEI (penile erection index) (rats): 44.4 ± 38.5
genital grooming (number of genital groomings) (rats): 2.3 ± 1.5

SMILES: CCCOc1ccc(S(=O)(=O)NCc2ccccc2)cc1-c1nc2c(CCC)nn(C)c2c(=O)[nH]1 [Example 23, 5-[2-propyloxy-5-(benzylamidosulfonyl)phenyl]-1-methyl-3-propyl-1,6-dihydro-7H-pyrazolo(4,3-d)pyrimidin-7-one]
PEI (penile erection index) (rats): 266.7 ± 57.7
genital grooming (number of genital groomings) (rats): 3.0 ± 1.0
IC50 [1]: 12.7 nM
LD50 [2]: > 1000 mg/kg

SMILES: CCCc1nn(CC)c2c(=O)[nH]c(-c3cc(S(=O)(=O)NCc4ccccc4)ccc3OCC)nc12 [Example 24, 5-[2-ethoxy-5-(benzylamidosulfonyl)phenyl]-1-ethyl-3-propyl-1,6-dihydro-7H-pyrazolo(4,3-d)pyrimidin-7-one]
PEI (penile erection index) (rats): 233.3 ± 230.9
genital grooming (number of genital groomings) (rats): 2.7 ± 2.9
IC50 [1]: 86 nM
LD50 [2]: > 1000 mg/kg

SMILES: CCCc1nn(C)c2c(=O)[nH]c(-c3cc(S(=O)(=O)Nc4ccccc4)ccc3OCC)nc12 [Example 25]
PEI (penile erection index) (rats): 44.4 ± 38.5
genital grooming (number of genital groomings) (rats): 2.0 ± 0.0

SMILES: CCCc1nn(C)c2c(=O)[nH]c(-c3cc(S(=O)(=O)Nc4ccc(F)cc4)ccc3OCC)nc12 [Example 26, 5-[2-ethoxy-5-(4-fluorophenylamidosulfonyl)phenyl]-1-methyl-3-propyl-1,6-dihydro-7H-pyrazolo(4,3-d)pyrimidin-7-one]
PEI (penile erection index) (rats): 133.3 ± 133.3
genital grooming (number of genital groomings) (rats): 4.0 ± 1.7
IC50 [1]: 74.6 nM
LD50 [2]: > 1000 mg/kg

SMILES: CCCc1nn(C)c2c(=O)[nH]c(-c3cc(S(=O)(=O)Nc4ccc(C)cc4)ccc3OCC)nc12 [Example 27]
PEI (penile erection index) (rats): 66.7 ± 66.7
genital grooming (number of genital groomings) (rats): 2.7 ± 1.2

SMILES: CCCc1nn(C)c2c(=O)[nH]c(-c3cc(S(=O)(=O)Nc4ccc(C(C)(C)C)cc4)ccc3OCC)nc12 [Example 28, 5-[2-ethoxy-5-(4-t-butylphenylamidosulfonyl)phenyl]-1-methyl-3-propyl-1,6-dihydro-7H-pyrazolo(4,3-d)pyrimidin-7-one]
PEI (penile erection index) (rats): 300.0 ± 100.0
genital grooming (number of genital groomings) (rats): 3.0 ± 1.0
IC50 [1]: 46.6 nM
LD50 [2]: > 1000 mg/kg

SMILES: CCCc1nn(CC)c2c(=O)[nH]c(-c3cc(S(=O)(=O)Nc4ccc(C(C)(C)C)cc4)ccc3OCC)nc12 [Example 29, 5-[2-ethoxy-5-(4-t-butylphenylamidosulfonyl)phenyl]-1-ethyl-3-propyl-1,6-dihydro-7H-pyrazolo(4,3-d)pyrimidin-7-one]
PEI (penile erection index) (rats): 233.3 ± 152.8
genital grooming (number of genital groomings) (rats): 3.0 ± 2.0
IC50 [1]: 49.8 nM
LD50 [2]: > 1000 mg/kg

SMILES: CCOc1ccc(S(=O)(=O)Nc2ccc(C(C)(C)C)cc2)cc1-c1nc2c(CC(C)C)nn(C)c2c(=O)[nH]1 [Example 30]
PEI (penile erection index) (rats): 133.3 ± 57.7
genital grooming (number of genital groomings) (rats): 2.3 ± 0.6

SMILES: CCCc1nn(C)c2c(=O)[nH]c(-c3cc(S(=O)(=O)Nc4cc(C)cc(C)c4)ccc3OCC)nc12 [Example 32]
PEI (penile erection index) (rats): 66.7 ± 66.7
genital grooming (number of genital groomings) (rats): 1.3 ± 1.5

SMILES: CCCc1nn(C)c2c(=O)[nH]c(-c3cc(S(=O)(=O)Nc4ccccn4)ccc3OCC)nc12 [Example 42]
PEI (penile erection index) (rats): 33.3 ± 57.7
genital grooming (number of genital groomings) (rats): 1.3 ± 1.5

SMILES: CCCc1nn(C)c2c(=O)[nH]c(-c3cc(S(=O)(=O)NCc4ccncc4)ccc3OCC)nc12 [Example 43]
PEI (penile erection index) (rats): 11.1 ± 19.3
genital grooming (number of genital groomings) (rats): 0.7 ± 0.6

SMILES: CCCc1nn(CC)c2c(=O)[nH]c(-c3cc(S(=O)(=O)NCc4ccncc4)ccc3OCC)nc12 [Example 45]
PEI (penile erection index) (rats): 22.2 ± 38.5
genital grooming (number of genital groomings) (rats): 0.7 ± 1.2

SMILES: CCCc1nn(C)c2c(=O)[nH]c(-c3cc(S(=O)(=O)NCc4ccccn4)ccc3OCC)nc12 [Example 50]
PEI (penile erection index) (rats): 44.3 ± 38.5
genital grooming (number of genital groomings) (rats): 1.0 ± 0.0

IC50 [1]: 103 nM
SMILES: CCCc1nn(C)c2c(=O)[nH]c(-c3cc(S(=O)(=O)NCC4CCCN4C)ccc3OCC)nc12 (centres unmarked) [Example 55]
PEI (penile erection index) (rats): 350.0 ± 173.2
genital grooming (number of genital groomings) (rats): 3.8 ± 1.5

IC50 [1]: 93.9 nM
SMILES: CCCc1nn(CC)c2c(=O)[nH]c(-c3cc(S(=O)(=O)NCC4CCN(C)C4)ccc3OCC)nc12 (centres unmarked) [Example 61]
PEI (penile erection index) (rats): 25.0 ± 28.9
genital grooming (number of genital groomings) (rats): 0.8 ± 0.5

IC50 [1]: 63 nM
SMILES: CCCc1nn(C)c2c(=O)[nH]c(-c3cc(S(=O)(=O)NCCC4CCCN4C)ccc3OCC)nc12 (centres unmarked) [Example 67]
PEI (penile erection index) (rats): 75.0 ± 61.2
genital grooming (number of genital groomings) (rats): 1.8 ± 1.5
